Reference: US9464071B2 (priority 2010, dated 2016)
Where “and” joins values, the source holds several entries; their conditions need not be identical. Equal entries are not always repeated. Structures can show the parent of a compound that is named as a salt.

Compound | melting point
COc1cc(OC)cc(N(CC2CC2)c2ccc3ncc(-c4cnn(CC(=O)N5CCC(O)C5)c4)nc3c2)c1 (centres unmarked) | 203.4 °C and 203.41 °C
COc1cc(OC)cc(N(CC2CC2)c2ccc3ncc(-c4cnn(S(C)(=O)=O)c4)nc3c2)c1 | 207.88 °C
COc1ccc(N(CC2CC2)c2ccc3ncc(-c4cnn(C)c4)nc3c2)cc1OC | 190 °C
COc1cc(OC)cc(N(CC2CC2)c2ccc3ncc(-c4cnn(CC(=O)NCCN5CCCC5)c4)nc3c2)c1 | 162.91 °C
COc1cc(OC)cc(N(CC2CC2)c2ccc3ncc(-c4cnn(C(C)(C)C(=O)NCCO)c4)nc3c2)c1 | 149.27 °C
COc1cc(OC)cc(N(CC2CC2)c2ccc3ncc(-c4cnn(C(C)(C)C(=O)N5CCNCC5)c4)nc3c2)c1 | 127.97 °C
COc1cc(OC)cc(N(Cc2ccc(Cl)s2)c2ccc3ncc(-c4cnn(C)c4)nc3c2)c1 | 140.28 °C
COc1cc(OC)cc(N(CC2CC2)c2ccc3ncc(-c4cnn(CCNS(=O)(=O)N(C)C)c4)nc3c2)c1 | 160.27 °C
CNCCN(c1cc(OC)cc(OC)c1)c1ccc2ncc(-c3cnn(CCO)c3)nc2c1 | 131.93 °C
COc1cc(OC)cc(N(CC(=O)NCCO)c2ccc3ncc(-c4cnn(C)c4)nc3c2)c1 | 201.43 °C
COc1cc(OC)cc(N(Cc2ccc(Cl)cc2)c2ccc3ncc(-c4cnn(C)c4)nc3c2)c1 | 114.12 °C
COc1cc(OC)cc(N(Cc2ccccc2)c2ccc3ncc(-c4cnn(C)c4)nc3c2)c1 | 133.89 °C
COc1cc(OC)cc(N(c2ccc3ncc(-c4cnn(C)c4)nc3c2)[C@H]2CC[C@H](NC(C)C)CC2)c1 | 107 °C
COc1cc(OC)cc(N(CC2COCC(C)(C)N2)c2ccc3ncc(-c4cnn(C)c4)nc3c2)c1 (centres unmarked) | 157 °C
COc1cc(OC)cc(N(Cc2cc3ncccc3n2C)c2ccc3ncc(-c4cnn(C)c4)nc3c2)c1 | 241 °C
COc1cc(OC)cc(N(CCNC(C)C)c2ccc3ncc(-c4cnn(C5CCN(C(=O)OC(C)(C)C)CC5)c4)nc3c2)c1 | 66 °C
[2H]C([2H])([2H])Oc1cc(OC([2H])([2H])[2H])cc(N(CC#Cc2ccncc2)c2ccc3ncc(-c4cnn(C(C)C)c4)nc3c2)c1 | 146 °C
COc1cc(OC)cc(N(CC2CNCCO2)c2ccc3ncc(-c4cnn(C)c4)nc3c2)c1 (centres unmarked) | 149 °C
COc1cc(OC)cc(N(CCNCC(O)C(F)(F)F)c2ccc3ncc(-c4cnn(C)c4)nc3c2)c1 (centres unmarked) | 123 °C
COc1cc(OC)cc(N(CC#Cc2cccc(N)n2)c2ccc3ncc(-c4cnn(C)c4)nc3c2)c1 | 203 °C
COc1cc(O)cc(N(CCN)c2ccc3ncc(-c4cnn(C)c4)nc3c2)c1 | 186 °C
COc1cccc(N(CCNC(C)C)c2ccc3ncc(-c4cnn(C)c4)nc3c2)c1 | 247 °C

Compound | melting point
COc1cc(OC)cc(N(CCF)c2ccc3ncc(-c4cnn(C)c4)nc3c2)c1 | 143 °C
COc1ccnc(C#CCN(c2ccc3ncc(-c4cnn(C)c4)nc3c2)c2c(Cl)c(OC)cc(OC)c2Cl)n1 | 130 °C
COc1cc(OC)cc(N(Cc2nc(OC)cc(OC)n2)c2ccc3ncc(-c4cnn(C)c4)nc3c2)c1 | 127 °C
COC(=O)c1cccnc1C#CCN(c1cc(OC)cc(OC)c1)c1ccc2ncc(-c3cnn(C)c3)nc2c1 | 156 °C
COc1ccnc(C#CCN(c2ccc3ncc(-c4cnn(C)c4)nc3c2)c2c(F)c(OC)cc(OC)c2F)n1 | 187 °C
COC(=O)c1ccnc(C#CCN(c2cc(OC)cc(OC)c2)c2ccc3ncc(-c4cnn(C)c4)nc3c2)n1 | 178 °C
COc1cc(OC)cc(N(CC2CN(Cc3ccccc3)CCN2Cc2ccccc2)c2ccc3ncc(-c4cnn(C)c4)nc3c2)c1 (centres unmarked) | 148 °C
COc1cc(OC)cc(N(CCN(Cc2ccccc2N)C(C)C)c2ccc3ncc(-c4cnn(C)c4)nc3c2)c1 | 70 °C
COc1cc(OC)cc(N(CCP(=O)(O)O)c2ccc3ncc(-c4cnn(C)c4)nc3c2)c1 (as salt: HBr) | > 260 °C
COc1cc(OC)cc(N(CCCN2CCC[C@@H]2CC#N)c2ccc3ncc(-c4cnn(C)c4)nc3c2)c1 (as salt: HCl) | 140 °C
COc1cc(OC)cc(N(CCCN2CCC[C@H]2CC#N)c2ccc3ncc(-c4cnn(C)c4)nc3c2)c1 (as salt: HCl) | 135 °C
COc1cc(OC)cc(N(CCNC(C)C)c2ccc3ncc(-c4cnn(CC5CCOCC5)c4)nc3c2)c1 (as salt: HCl) | 166 °C
COc1cc(OC)cc(N(CCCN2CCC(F)(F)C2)c2ccc3ncc(-c4cn[nH]c4)nc3c2)c1 (as salt: HCl) | 215.29 °C
COc1cc(OC)cc(N(CCNC(C)C)c2ccc3ncc(-c4cnn(C5CCOC5)c4)nc3c2)c1 (centres unmarked) (as salt: HCl) | 160 °C
COc1cc(OC)cc(N(Cc2cc[nH]n2)c2ccc3ncc(-c4cnn(C)c4)nc3c2)c1 (as salt: HCl) | 203 °C
COc1cc(OC)cc(N(CCCn2cc(C)nc2C)c2ccc3ncc(-c4cnn(C)c4)nc3c2)c1 (as salt: HCl) | 157 °C
COc1cc(OC)cc(N(CCN2CCC(CN)CC2)c2ccc3ncc(-c4cnn(C)c4)nc3c2)c1 (as salt: HCl) | 151 °C
CCn1cc(-c2cnc3ccc(N(CCCN4CCCC4=O)c4cc(OC)cc(OC)c4)cc3n2)cn1 (as salt: HCl) | 197 °C
COc1cc(OC)cc(N(Cc2nc(C)c[nH]2)c2ccc3ncc(-c4cnn(C)c4)nc3c2)c1 (as salt: HCl) | 188 °C
CNCC(O)CN(c1cc(OC)cc(OC)c1)c1ccc2ncc(-c3cnn(C)c3)nc2c1 (centres unmarked) (as salt: HCl) | 224 °C
COc1cc(OC)cc(N(CCn2cccc2)c2ccc3ncc(-c4cnn(C)c4)nc3c2)c1 (as salt: HCl) | 130 °C
COc1cc(OC)cc(N(CCN2C[C@H](C)C[C@@H](C)C2)c2ccc3ncc(-c4cnn(C)c4)nc3c2)c1 (as salt: HCl) [Compound 40] | 80 °C

Compound | melting point
COc1cc(OCCO)cc(N(CC2CC2)c2ccc3ncc(-c4cnn(CCO)c4)nc3c2)c1 (as salt: HCl) [Compound 131, 2-[4-(7-{(Cyclopropylmethyl)[3-(2-hydroxyethoxy)-5-methoxyphenyl]amino}quinoxalin-2-yl)-1H-pyrazol-1-yl]ethanol] | 183.2 °C
CNC(=O)Cn1cc(-c2cnc3ccc(N(CCNC(C)C)c4cc(OC)cc(OC)c4)cc3n2)cn1 (as salt: HCl) [Compound 134, 2-(4-{7-[(3,5-Dimethoxyphenyl){2-[(1-methylethyl)amino]ethyl}amino]quinoxalin-2-yl}-1H-pyrazol-1-yl)-N-methylacetamide] | 184 °C
CCn1cc(-c2cnc3ccc(N(CCNC(C)C)c4cc(OC)cc(OC)c4)cc3n2)cn1 (as salt: HCl) [Compound 135, N-(3,5-Dimethoxyphenyl)-N-[3-(1-ethyl-1H-pyrazol-4-yl)quinoxalin-6-yl]-N′-(1-methylethyl)ethane-1,2-diamine] | 194 °C
COc1cc(OC)cc(N(CCN2C[C@@H]3C[C@H]2CN3)c2ccc3ncc(-c4cnn(C)c4)nc3c2)c1 (as salt: HCl) [Compound 621] | > 260 °C
COc1cc(OC)cc(N(CCNC(C)C)c2ccc3ncc(-c4c(C)nn(C)c4C)nc3c2)c1 (as salt: HCl) [Compound 623] | 133 °C
COc1cc(OC)cc(N(CCNC(C)C)c2ccc3ncc(-c4cnn(CCCN5CCN(CCO)CC5)c4)nc3c2)c1 (as salt: HCl) [Compound 644] | 96 °C
COCC(O)CN(c1cc(OC)cc(OC)c1)c1ccc2ncc(-c3cnn(C(C)C)c3)nc2c1 (centres unmarked) (as salt: hydrochloric acid salt) | 110 °C
COCC(O)CN(c1cc(OC)cc(OC)c1)c1ccc2ncc(-c3cnn(C(C)C)c3)nc2c1 (single isomer, unassigned) (as salt: HCl) | 95 °C
COc1cc(OC)cc(N(C[C@@H](O)CO)c2ccc3ncc(-c4cnn(C)c4)nc3c2)c1 (single isomer, unassigned) [Compound 97] | 187.39 °C and 188 °C
COc1cc(OC)cc(N(C[C@H](O)CO)c2ccc3ncc(-c4cnn(C)c4)nc3c2)c1 (single isomer, unassigned) [Compound 98] | 186.98 °C
COc1cc(OC)cc(N(CC(O)C(F)(F)F)c2ccc3ncc(-c4cnn(C)c4)nc3c2)c1 (single isomer, unassigned) [Compound 148, (2R*)-3-{(3,5-Dimethoxyphenyl)[3-(1-methyl-1H-pyrazol-4-yl)quinoxalin-6-yl]amino}-1,1,1-trifluoropropan-2-ol] | 149.13 °C
COc1cc(OC)cc(N(CC(O)C(F)(F)F)c2ccc3ncc(-c4cnn(C)c4)nc3c2)c1 (single isomer, unassigned) [Compound 149, (2S*)-3-{(3,5-Dimethoxyphenyl)[3-(1-methyl-1H-pyrazol-4-yl)quinoxalin-6-yl]amino}-1,1,1-trifluoropropan-2-ol] | 146.61 °C
COc1cc(OC)cc(N(C[C@H](O)C(F)(F)F)c2ccc3ncc(-c4cnn(CCCN)c4)nc3c2)c1 (stereo in doubt) | 154 °C
COc1cc(OC)cc(N(CCO)c2ccc3ncc(-c4cn[nH]c4)nc3c2)c1 [Compound 2] | 169.26 °C and 169 °C
CNC(=O)Cn1cc(-c2cnc3ccc(N(CCO)c4cc(OC)cc(OC)c4)cc3n2)cn1 [Compound 21] | 204.45 °C and 204.5 °C
CC(C)Oc1cccc(N(CC2CC2)c2ccc3ncc(-c4cnn(C)c4)nc3c2)c1 [Compound 22] | 109 °C and 108.61 °C
COc1cc(OC)cc(N(Cc2cc(C)no2)c2ccc3ncc(-c4cnn(CCO)c4)nc3c2)c1 [Compound 23] | 134 °C
COc1cc(OCCO)cc(N(CC2CC2)c2ccc3ncc(-c4cnn(C)c4)nc3c2)c1 [Compound 24] | 80 °C
COc1cc(OCCN)cc(N(CC2CC2)c2ccc3ncc(-c4cnn(C)c4)nc3c2)c1 [Compound 32] | 80 °C
CNC(=O)Cn1cc(-c2cnc3ccc(N(CCN)c4cc(OC)cc(OC)c4)cc3n2)cn1 [Compound 34] | 174 °C and 173.67 °C
COc1cc(OC)cc(N(CC2CC2)c2ccc3ncc(-c4cnn(CC(O)CO)c4)nc3c2)c1 (centres unmarked) [Compound 37] | 154.05 °C and 154 °C
